Test results published in PubChem BioAssay (NCI).
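How tested: cells in 96-well plates exposed to compound for 48 hours at five concentrations. GI50 marks 50% less growth. TGI marks complete inhibition of growth.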

Assays:
Assay in all cases: inhibition of tumour cell growth, NCI panel, 48 h
786-0 renal = test system: 786-0 renal
A498 renal = test system: A498 renal
A549 NSCLC = test system: A549 NSCLC
ACHN renal = test system: ACHN renal
BT-549 breast = test system: BT-549 breast
CAKI-1 renal = test system: CAKI-1 renal
CCRF-CEM leukemia = test system: CCRF-CEM leukemia
COLO 205 colon = test system: COLO 205 colon
DU-145 prostate = test system: DU-145 prostate
EKVX NSCLC = test system: EKVX NSCLC
HCC-2998 colon = test system: HCC-2998 colon
HCT-116 colon = test system: HCT-116 colon
HCT-15 colon = test system: HCT-15 colon
HL-60(TB) leukemia = test system: HL-60(TB) leukemia
HOP-62 NSCLC = test system: HOP-62 NSCLC
HOP-92 NSCLC = test system: HOP-92 NSCLC
HS 578T breast = test system: HS 578T breast
HT29 colon = test system: HT29 colon
IGROV1 ovarian = test system: IGROV1 ovarian
K-562 leukemia = test system: K-562 leukemia
KM12 colon = test system: KM12 colon
LOX IMVI melanoma = test system: LOX IMVI melanoma
M14 melanoma = test system: M14 melanoma
MALME-3M melanoma = test system: MALME-3M melanoma
MCF7 breast = test system: MCF7 breast
MDA-MB-231 breast = test system: MDA-MB-231 breast
MDA-MB-435 = test system: MDA-MB-435
MDA-MB-468 breast = test system: MDA-MB-468 breast
MOLT-4 leukemia = test system: MOLT-4 leukemia
NCI-H226 lung = test system: NCI-H226 lung
NCI-H23 lung = test system: NCI-H23 lung
NCI-H460 lung = test system: NCI-H460 lung
NCI-H522 lung = test system: NCI-H522 lung
NCI/ADR-RES ovarian = test system: NCI/ADR-RES ovarian
OVCAR-3 ovarian = test system: OVCAR-3 ovarian
OVCAR-4 ovarian = test system: OVCAR-4 ovarian
OVCAR-5 ovarian = test system: OVCAR-5 ovarian
OVCAR-8 ovarian = test system: OVCAR-8 ovarian
PC-3 prostate = test system: PC-3 prostate
RPMI-8226 leukemia = test system: RPMI-8226 leukemia
RXF 393 renal = test system: RXF 393 renal
SF-268 CNS = test system: SF-268 CNS
SF-295 CNS = test system: SF-295 CNS
SF-539 CNS = test system: SF-539 CNS
SK-MEL-2 melanoma = test system: SK-MEL-2 melanoma
SK-MEL-28 melanoma = test system: SK-MEL-28 melanoma
SK-MEL-5 melanoma = test system: SK-MEL-5 melanoma
SK-OV-3 ovarian = test system: SK-OV-3 ovarian
SN12C renal = test system: SN12C renal
SNB-19 CNS = test system: SNB-19 CNS
SNB-75 CNS = test system: SNB-75 CNS
SR leukemia = test system: SR leukemia
SW-620 colon = test system: SW-620 colon
T-47D breast = test system: T-47D breast
TK-10 renal = test system: TK-10 renal
U251 CNS = test system: U251 CNS
UACC-62 melanoma = test system: UACC-62 melanoma
UO-31 renal = test system: UO-31 renal

## O=C(Nc1cccc(-n2cnc3cc(-c4ccc(O)cc4)ccc32)c1)C1CC1
786-0 renal
  GI50: 0.683 µM
  TGI: 45.6 µM
A498 renal
  GI50: 19.5 µM
  TGI: 84.9 µM
A549 NSCLC
  GI50: 0.895 µM
  TGI: > 100 µM
ACHN renal
  GI50: 0.593 µM
  TGI: 35.2 µM
BT-549 breast
  GI50: 0.396 µM
  TGI: 11.8 µM
CAKI-1 renal
  GI50: 0.503 µM
  TGI: 66.5 µM
CCRF-CEM leukemia
  GI50: 0.389 µM
  TGI: 10.3 µM
COLO 205 colon
  GI50: 0.489 µM
  TGI: 18.6 µM
DU-145 prostate
  GI50: 1.46 µM
  TGI: 28.4 µM
EKVX NSCLC
  GI50: 0.782 µM
  TGI: 36.1 µM
HCC-2998 colon
  GI50: 1.18 µM
  TGI: 24.4 µM
HCT-116 colon
  GI50: 0.512 µM
  TGI: 17.7 µM
HCT-15 colon
  GI50: 0.308 µM
  TGI: 15.7 µM
HL-60(TB) leukemia
  GI50: 0.237 µM
  TGI: 0.645 µM
HOP-62 NSCLC
  GI50: 0.625 µM
  TGI: > 69.2 µM
HOP-92 NSCLC
  GI50: 14.6 µM
  TGI: 52.1 µM
HS 578T breast
  GI50: 0.388 µM
  TGI: > 45.4 µM
HT29 colon
  GI50: 0.34 µM
  TGI: > 40.8 µM
IGROV1 ovarian
  GI50: 0.591 µM
  TGI: 26.9 µM
K-562 leukemia
  GI50: 0.284 µM
  TGI: > 36.6 µM
KM12 colon
  GI50: 0.351 µM
  TGI: 13.9 µM
LOX IMVI melanoma
  GI50: 0.478 µM
  TGI: 22.1 µM
M14 melanoma
  GI50: 0.344 µM
  TGI: 28.3 µM
MALME-3M melanoma
  GI50: 0.555 µM
  TGI: 28.2 µM
MCF7 breast
  GI50: 0.358 µM
  TGI: 20.2 µM
MDA-MB-231 breast
  GI50: 0.7 µM
  TGI: 42.9 µM
MDA-MB-435
  GI50: 0.108 µM
  TGI: 0.441 µM
MDA-MB-468 breast
  GI50: 0.313 µM
  TGI: 8.82 µM
MOLT-4 leukemia
  GI50: 0.435 µM
  TGI: 6.19 µM
NCI-H226 lung
  GI50: 2.88 µM
  TGI: 48.1 µM
NCI-H23 lung
  GI50: 1.12 µM
  TGI: 19.8 µM
NCI-H460 lung
  GI50: 0.469 µM
  TGI: > 43.7 µM
NCI-H522 lung
  GI50: 0.225 µM
  TGI: 1.14 µM
NCI/ADR-RES ovarian
  GI50: 0.539 µM
  TGI: 5.88 µM
OVCAR-3 ovarian
  GI50: 0.32 µM
  TGI: 3.76 µM
OVCAR-4 ovarian
  GI50: 5.94 µM
  TGI: 73.9 µM
OVCAR-5 ovarian
  GI50: 1.81 µM
  TGI: 69.5 µM
OVCAR-8 ovarian
  GI50: 0.823 µM
  TGI: > 58.8 µM
PC-3 prostate
  GI50: 0.546 µM
  TGI: 53.2 µM
RPMI-8226 leukemia
  GI50: 0.615 µM
  TGI: 13.6 µM
RXF 393 renal
  GI50: 0.411 µM
  TGI: 6.6 µM
SF-268 CNS
  GI50: 0.935 µM
  TGI: 71 µM
SF-295 CNS
  GI50: 0.372 µM
  TGI: 7.67 µM
SF-539 CNS
  GI50: 0.332 µM
  TGI: 2.03 µM
SK-MEL-2 melanoma
  GI50: 0.417 µM
  TGI: 23.6 µM
SK-MEL-28 melanoma
  GI50: 12.6 µM
  TGI: 48.5 µM
SK-MEL-5 melanoma
  GI50: 0.35 µM
  TGI: 14.8 µM
SK-OV-3 ovarian
  GI50: 0.82 µM
  TGI: 33.7 µM
SN12C renal
  GI50: 0.55 µM
  TGI: 35.6 µM
SNB-19 CNS
  GI50: 0.811 µM
  TGI: 72.9 µM
SNB-75 CNS
  GI50: 0.246 µM
  TGI: 3.42 µM
SR leukemia
  GI50: 0.175 µM
  TGI: 59.6 µM
SW-620 colon
  GI50: 0.421 µM
  TGI: > 91.5 µM
T-47D breast
  GI50: 0.521 µM
  TGI: 19.4 µM
TK-10 renal
  GI50: 11.3 µM
  TGI: 63.4 µM
U251 CNS
  GI50: 0.514 µM
  TGI: > 100 µM
UACC-62 melanoma
  GI50: 0.354 µM
  TGI: 19.3 µM
UO-31 renal
  GI50: 0.599 µM
  TGI: 19.3 µM
